According to patent US20240409556A1, “BENZOPIPERAZINE AND RELATED ANALOGS FOR INHIBITING YAP/TAZ-TEAD” (Springworks Therapeutics, Inc., priority 2023, published 2024):

System: YAP/TAZ-TEAD transcription
Assay: Reporter gene assay for measuring the inhibition of YAP/TAZ-TEAD transcription (TEAD-responsive element luciferase reporter in Hek293T cells)
Format: cell-based
Conditions: 24 hours incubation
Experimental: Example 56: Activity of Compounds of the Disclosure in a Reporter Gene Assay for Measuring the Inhibition of YAP/TAZ-TEAD Transcription
Hek293T cells were cultured in DMEM supplemented with 10% fetal bovine serum, Sodium pyruvate, Sodium bicarbonate, L-glutamine. The cells were harvested and transiently transfected with TEAD-responsive element luciferase reporter. Transfected cells were plated in 384-well plate containing pre-diluted compounds. After 24 hours incubation at 37° C./5% CO2, assay plates were cooled to room temperature and levelled to an equal volume per well, prior to the addition of 25 uL luciferase substrate SteadyLite (Perkin Elmer)/well. The plate was shaken for 10 min at 600 rpm, centrifuged for 1 min at 500 rpm and measured with an Envision reader (PerkinElmer). The amount of relative light units produced by the TEAD reporter was used to calculate the percentage of inhibition.
The percent of reporter inhibition was calculated in the presence of a positive control inhibitor (100% inhibition) versus a condition with the presence of the vehicle basal activity of the reporter (0% inhibition). The ability of a test compound to inhibit this activity was determined as: Percentage inhibition=[[…]((RLU determined in the presence of vehicle−RLU determined for sample with test compound present) divided by (RLU determined in the presence of vehicle−RLU determined for sample with positive control inhibitor))]*100.
The activities of example compounds tested are depicted in Table 3. The activity ranges A, B and C refer to IC50 values in the reporter gene assay as follows: “A”: IC50<1 μM; “B”: 1 μM≤IC50≤10 μM and “C”: IC50>10 μM; NT=not tested.

| SMILES | IC50 [nM] |
| --- | --- |
| CC(=O)NCC1CN(c2ccc(C(F)(F)F)cc2)c2cc(Cl)cnc2O1 (single isomer, unassigned) [75-En1, (R)- or (S)-N-((7-chloro-1-(4-(trifluoromethyl)phenyl)-2,3-dihydro-1H-pyrido[2,3-b][1,4]oxazin-3-yl)methyl)acetamide] | > 10000 |
| CC(=O)NCC1CN(c2ccc(C(F)(F)F)cc2)c2ccc(N(C)C)nc2O1 (single isomer, unassigned) [87-En2, (R)- or (S)-N-((6-(dimethylamino)-1-(4-(trifluoromethyl)phenyl)-2,3-dihydro-1H-pyrido[2,3-b][1,4]oxazin-3-yl)methyl)acetamide] | < 1000 |
| CC(=O)NCC1CN(c2ccc(C(F)(F)F)cc2)c2ccc(C3CC3)nc2O1 (stereo not drawn) [compound 81, N-((6-cyclopropyl-1-(4-(trifluoromethyl)phenyl)-2,3-dihydro-1H-pyrido[2,3-b][1,4]oxazin-3-yl)methyl)acetamide] | < 1000 |
| CNC(=O)N1CCN2c3ncccc3N(c3ccc(C(F)(F)F)cc3)CC2C1 (single isomer, unassigned) [52-En1, (R)- or (S)-N-methyl-5-(4-(trifluoromethyl)phenyl)-5,6,6a,7,9,10-hexahydro-8H-pyrazino[1,2-a]pyrido[3,2-e]pyrazine-8-carboxamide] | < 1000 |
| CC(=O)N1CCN2c3nccnc3N(c3ccc(C(F)(F)F)cc3)CC2C1 (single isomer, unassigned) [40-En2, (R)- or (S)-1-(5-(4-(trifluoromethyl)phenyl)-5,6,6a,7,9,10-hexahydro-8H-dipyrazino[1,2-a:2′,3′-e]pyrazin-8-yl)ethan-1-one] | 1000 to 10000 |
| CC1(C(=O)O)CCN2c3ccccc3N(c3ccc(C(F)(F)F)cc3)CC2C1 [115-D1, (6aS,8S)— or (6aR,8S)— or (6aR,8R)— or (6aS,8R)-8-methyl-5-(4-(trifluoromethyl)phenyl)-6,6a,7,8,9,10-hexahydro-5H-pyrido[1,2-a]quinoxaline-8-carboxylic acid] | 1000 to 10000 |
| O=C(O)C1CCN2c3ncccc3N(c3ccc(C(F)(F)F)cc3)CC2C1 [96A-En2, (6aS,8S)- or (6aR,8S)- or (6aR,8R)- or (6aS,8R)-5-(4-(trifluoromethyl)phenyl)-6,6a,7,8,9,10-hexahydro-5H-dipyrido[1,2-a:3′,2′-e]pyrazine-8-carboxylic acid] | < 1000 |
| Cc1ccc2c(n1)N1CCC(C(=O)O)CC1CN2c1ccc(C(F)(F)F)cc1 [101-D3, (6aS,8S)— or (6aR,8S)— or (6aR,8R)— or (6aS,8R)-2-methyl-5-(4-(trifluoromethyl)phenyl)-6,6a,7,8,9,10-hexahydro-5H-dipyrido[1,2-a:3′,2′-e]pyrazine-8-carboxylic acid] | < 1000 |
| C=CC(=O)N1CC2CN(c3ccc(C(F)(F)F)cc3)c3ccccc3N2CC1C(=O)O (stereo not drawn) [compound 89, (cis)- or (trans)-3-acryloyl-6-(4-(trifluoromethyl)phenyl)-2,3,4,4a,5,6-hexahydro-1H-pyrazino[1,2-a]quinoxaline-2-carboxylic acid] | < 1000 |
| CNS(=O)(=O)N1CCN2c3ccccc3N(c3ccc(C(F)(F)F)cc3)CC2C1 (single isomer, unassigned) [32-En1, (R)- or (S)-N-methyl-6-(4-(trifluoromethyl)phenyl)-1,2,4,4a,5,6-hexahydro-3H-pyrazino[1,2-a]quinoxaline-3-sulfonamide] | < 1000 |

Same assay, conditions: Homo sapiens, HEK-293T, 24 h, 24 hours incubation

| SMILES | IC50 [nM] |
| --- | --- |
| Cc1nnc(N2CCN3c4ccccc4N(c4ccc(C(F)(F)F)cc4)CC3C2)o1 (stereo not drawn) [compound 24, 2-methyl-5-(6-(4-(trifluoromethyl)phenyl)-1,2,4,4a,5,6-hexahydro-3H-pyrazino[1,2-a]quinoxalin-3-yl)-1,3,4-oxadiazole] | > 10000 |
| C=CC(=O)NCC1CN(c2ccc(C(F)(F)F)cc2)c2ccccc2N1S(C)(=O)=O (stereo not drawn) [compound 23, N-((1-(methylsulfonyl)-4-(4-(trifluoromethyl)phenyl)-1,2,3,4-tetrahydroquinoxalin-2-yl)methyl)acrylamide] | < 1000 |
| CC(=O)N[C@@H]1C[C@@H]2CN(c3ccc(C(F)(F)F)cc3)c3cc(Cl)cnc3N2C1 [compound 98, N-((6aR,8R)-3-chloro-5-(4-(trifluoromethyl)phenyl)-5,6,6a,7,8,9-hexahydropyrido[3,2-e]pyrrolo[1,2-a]pyrazin-8-yl)acetamide] | < 1000 |
| CC(=O)NCC1CN(c2ccc(C(F)(F)F)cc2)c2ccc(Br)nc2O1 (single isomer, unassigned) [compound 122, (R)- or (S)—N-((6-bromo-1-(4-(trifluoromethyl)phenyl)-2,3-dihydro-1H-pyrido[2,3-b][1,4]oxazin-3-yl)methyl)acetamide] | < 1000 |
| Cc1ncc(CN2CCN(c3ccc(C(F)(F)F)cc3)c3ccccc32)[nH]1 [compound 61, 1-((2-methyl-1H-imidazol-5-yl)methyl)-4-(4-(trifluoromethyl)phenyl)-1,2,3,4-tetrahydroquinoxaline] | < 1000 |
| O=C(O)C1CCN(c2ccccc2Oc2ccc(C(F)(F)F)cc2)CC1 [compound 120, 1-(2-(4-(trifluoromethyl)phenoxy)phenyl)piperidine-4-carboxylic acid] | < 1000 |
| CC(=O)N[C@H]1C[C@@H]2CN(c3ccc(C(F)(F)F)cc3)c3cccnc3N2C1 [70-D2, N-((6aR,8S)-5-(4-(trifluoromethyl)phenyl)-5,6,6a,7,8,9-hexahydropyrido[3,2-e]pyrrolo[1,2-a]pyrazin-8-yl)acetamide] | < 1000 |
| CC(=O)N1CC2CN(c3ccc(C(F)(F)F)cc3)c3cccnc3N2C1=O (stereo not drawn) [compound 59, 8-acetyl-5-(4-(trifluoromethyl)phenyl)-6,6a,7,8-tetrahydroimidazo[1,5-a]pyrido[3,2-e]pyrazin-9(5H)-one] | > 10000 |
| C=CC(=O)NCC1CN(c2ccc(C(F)(F)F)cc2)c2cccnc2N1C (stereo not drawn) [compound 27, N-((4-methyl-1-(4-(trifluoromethyl)phenyl)-1,2,3,4-tetrahydropyrido[2,3-b]pyrazin-3-yl)methyl)acrylamide] | < 1000 |
| CC(=O)N1CCN2c3nccnc3N(c3ccc(C(F)(F)F)cc3)CC2C1 (stereo not drawn) [compound 40, 1-(5-(4-(trifluoromethyl)phenyl)-5,6,6a,7,9,10-hexahydro-8H-dipyrazino[1,2-a:2′,3′-e]pyrazin-8-yl)ethan-1-one] | < 1000 |
| CNC(=O)O[C@@H]1C[C@@H]2CN(c3ccc(C(F)(F)F)cc3)c3cccnc3N2C1 [compound 92, (6aR,8R)-5-(4-(trifluoromethyl)phenyl)-5,6,6a,7,8,9-hexahydropyrido[3,2-e]pyrrolo[1,2-a]pyrazin-8-yl methylcarbamate] | < 1000 |
| C=CC(=O)N1CC2CN(c3ccc(C(F)(F)F)cc3)c3ccccc3N2CC1C(=O)O (stereo not drawn) [compound 88, (cis)- or (trans)-3-acryloyl-6-(4-(trifluoromethyl)phenyl)-2,3,4,4a,5,6-hexahydro-1H-pyrazino[1,2-a]quinoxaline-2-carboxylic acid] | < 1000 |
| CC(=O)N[C@@H]1C[C@@H]2CN(c3ccc(C(F)(F)F)cc3)c3cccnc3N2C1 [70-D1, N-((6aR,8R)-5-(4-(trifluoromethyl)phenyl)-5,6,6a,7,8,9-hexahydropyrido[3,2-e]pyrrolo[1,2-a]pyrazin-8-yl)acetamide] | < 1000 |
| O=S1(=O)CCN2c3ncccc3N(c3ccc(C(F)(F)F)cc3)CC2C1 (stereo not drawn) [compound 68, 5-(4-(trifluoromethyl)phenyl)-5,6,6a,7,9,10-hexahydropyrido[3′,2′:5,6]pyrazino[2,1-c][1,4]thiazine 8,8-dioxide] | 1000 to 10000 |
